Test results: paper PMC4830873 (Analytical and Bioanalytical Chemistry, 2016)
“Also recorded” adds a separate entry of the source. Values belong to the molecule of their own block, whether it stands above or below them. Where a SMILES comes first, the peptide text is derived from it. [ ]: non-standard residue; d: D form.

Assays:
[1] = Rat administration study, detection in plasma after intravenous administration; format: in vivo, Wistar; settings: for In vivo biotransformation in rats (in words) / Anticipated metabolic products (N- or C-terminally truncated analogues) in rat plasma / Detection of intact GHRH in rat plasma 4 h post-administration / Detection of intact GHRH in rat plasma 8 h post-administration: 0.1 mg intravenous; for In vivo biotransformation in rats (in words): compared to CJC-1295; for Anticipated metabolic products (N- or C-terminally truncated analogues) in rat plasma: plasma 2, 4 and 8 h; for Detection of intact GHRH in rat plasma 4 h post-administration: plasma 4 h post dosing; for Detection of intact GHRH in rat plasma 4 h post-administration / Detection of intact GHRH in rat plasma 8 h post-administration: immunoaffinity purification and LC-HRMS/MS; for Detection of intact GHRH in rat plasma 8 h post-administration: plasma 8 h post dosing (latest collection time point)
Experimental: (§1) Sample aliquots of 100 μL of plasma were spiked with 1 μL of ISTD [200 ng/mL] and diluted with 100 μL of PBS before extraction. The multichannel pipette was equipped with up to 12 protein A/G MSIA™-Tips and up to 2000 cycles (one cycle corresponding to one round of liquid aspiration and ejection) were used for distinct sample preparation steps as outlined in Table 2. First, tips were conditioned with PBS before binding 10 μg of the polyclonal GHRH primary antibody (5 μL [2 mg/mL] in 95 μL PBS) to the proteins A/G immobilized on the monolithic adsorbent surface. After washing with PBS to remove unbound antibody residues the target analytes were extracted from plasma by antibody-antigen complex formation prior to three consecutive washing steps with PBS and water (Table 2). The peptides of interest were eluted into LoBind tubes using 3 % of aqueous acetic acid and the eluate was immediately used for injection into the UHPLC-MS(/MS) system. In Fig. 1, a schematic illustration of the relevant principle steps of the MSIA™ purification is presented.
To probe for the in vivo metabolism of Sermorelin, CJC-1293, CJC-1295, and Tesamorelin, 0.1 mg of each GHRH was administered intravenously to three rats (Rattus norvegicus, Wistar, 200–300 g bodyweight at dosing). Urine samples were collected in a metabolic cage prior to and 6, 12, 24, and 30 h after administration but not subjected to analysis in this study. Blood was sampled at 2, 4, and 8 h after injection and specimens were centrifuged at 13,000×g for 20 min to produce serum or EDTA plasma, which was stored at −20 °C until analysis. The animal studies were conducted with approval of the respective ethical committee and the laboratory followed the directive 2010/63/EU of the European parliament and the council of 22 September 2010 on the protection of animals used for scientific purposes.
All intact GHRHs administered intravenously to rats were detected in plasma samples collected 2 h post dosing. In addition, Tesamorelin, CJC-1295, and CJC-1293 were also identified in specimens sampled 4 and 8 h post-administrating (Fig. 3), with the 8-h sample representing the latest collection time point of the study. Here it appears noteworthy that only qualitative results were obtained and that no pharmacokinetic interpretation was conducted. While all analytes were unequivocally identified and differentiated by mass spectrometry, chromatographic separation was accomplished for all target peptides with the exemption of the closely related compounds Sermorelin and CJC-1293 under the chosen analytical conditions.

[2] = In vitro incubation in fresh human plasma (metabolic fate / degradation); format: in vitro ADME; settings: fresh human plasma diluted 1:1 with PBS, qualitative; for Degradation products (metabolites) detected after incubation in human plasma: spiked to 10 μg/mL, 30, 60, 120 and 240 min at 37 °C, LC-HRMS full scan before vs after incubation
Experimental: For the investigation of the metabolic fate of GHRHs, in vitro experiments using fresh human plasma samples were conducted, allowing to test for potential degradation products of the studied substances. In accordance to earlier reported methods, aliquots of human plasma samples were diluted (1:1) with PBS [22] and spiked to 10 μg/mL with Sermorelin or Tesamorelin, respectively. After incubation for 30, 60, 120, and 240 min at 37 °C, samples were prepared and analyzed as described elsewhere. Simulating degradation processes of exopeptidases, potential metabolites were considered by eliminating up to three amino acids from both N- and C-terminus. All samples were probed for the anticipated metabolic products as well as for the corresponding intact drugs.
Identifying potential metabolites of Sermorelin and Tesamorelin was accomplished by subtracting and comparing mass spectrometric full scan data of samples prepared before and after incubation of the substrates in fresh human plasma.

[3] = Human administration study, detection in EDTA plasma after subcutaneous Geref (Sermorelin); format: in vivo; settings: healthy volunteer, 500 μg Geref (Sermorelin) subcutaneous, n = 1
Experimental: as §1
Complementary to the aforementioned rat elimination study, a single dose of 500 μg of Geref (Sermorelin) (Hallandale Pharmacy, FL, USA) was self-administered subcutaneously by a healthy volunteer (78 kg) following the provision of written consent. EDTA plasma samples were collected 30, 90, and 270 min after dosing and the specimens were stored at −20 °C until analysis.
Compared to rat plasma samples collected after the intravenous application of Sermorelin, the human in vivo study (using subcutaneous drug application) indicates a different but also rapid metabolism of the peptide hormone. While the intact drug was not detected in any of the collected plasma samples, the in vitro-derived Sermorelin metabolite GRF3-29 was detected in plasma 30 min post injection (Fig. 4).

[4] = EDTA plasma samples after subcutaneous self-administration of Geref (Sermorelin); settings: human, up to 270 min
[5] = system: dipeptidyl peptidase-IV (DPP-IV); test: in vitro; settings: cited from earlier work
[6] = fresh human plasma samples diluted (1:1) with PBS; settings: 37 °C, up to 240 min
[7] = rat serum or EDTA plasma after intravenous administration; settings: rats (Rattus norvegicus, Wistar), up to 8 h

Molecule: CC[C@H](C)[C@H](NC(=O)[C@H](C)NC(=O)[C@H](CC(=O)O)NC(=O)[C@H](C)NC(=O)[C@@H](N)Cc1ccc(O)cc1)C(=O)N[C@@H](Cc1ccccc1)C(=O)N[C@H](C(=O)N[C@@H](CC(N)=O)C(=O)N[C@@H](CO)C(=O)N[C@@H](Cc1ccc(O)cc1)C(=O)N[C@@H](CCCNC(=N)N)C(=O)N[C@@H](CCCCN)C(=O)N[C@H](C(=O)N[C@@H](CC(C)C)C(=O)NCC(=O)N[C@@H](CCC(N)=O)C(=O)N[C@@H](CC(C)C)C(=O)N[C@@H](CO)C(=O)N[C@@H](C)C(=O)N[C@@H](CCCNC(=N)N)C(=O)N[C@@H](CCCCN)C(=O)N[C@@H](CC(C)C)C(=O)N[C@@H](CC(C)C)C(=O)N[C@@H](CCC(N)=O)C(=O)N[C@@H](CC(=O)O)C(=O)N[C@H](C(=O)N[C@@H](CCSC)C(=O)N[C@@H](CO)C(=O)N[C@@H](CCCNC(=N)N)C(N)=O)[C@@H](C)CC)C(C)C)[C@@H](C)O [Sermorelin, GHRH1-29]
Detection window of intact substance in plasma ([1]; 0.1 mg intravenous single dose, sampling at 2, 4 and 8 h, qualitative): ≤ 2 h
In vivo biotransformation in rats (in words) [1]: readily biotransformed
Anticipated metabolic products (N- or C-terminally truncated analogues) in rat plasma ([1]; qualitative): none of the anticipated metabolic products
Degradation products (metabolites) detected after incubation in human plasma [2]: the earlier reported metabolite (GRF3-29) [7] was observed
Intact drug remaining after incubation in human plasma ([2]; spiked to 10 μg/mL, 37 °C, after a period of 4 h (240 min), LC-HRMS full scan): entirely degraded
Detection of intact drug in human plasma after subcutaneous application ([3]; EDTA plasma 30, 90 and 270 min after dosing): not detected

Molecule: CC/C=C/CC(=O)N[C@@H](Cc1ccc(O)cc1)C(=O)N[C@@H](C)C(=O)N[C@@H](CC(=O)O)C(=O)N[C@@H](C)C(=O)N[C@H](C(=O)N[C@@H](Cc1ccccc1)C(=O)N[C@H](C(=O)N[C@@H](CC(N)=O)C(=O)N[C@@H](CO)C(=O)N[C@@H](Cc1ccc(O)cc1)C(=O)N[C@@H](CCCNC(=N)N)C(=O)N[C@@H](CCCCN)C(=O)N[C@H](C(=O)N[C@@H](CC(C)C)C(=O)NCC(=O)N[C@@H](CCC(N)=O)C(=O)N[C@@H](CC(C)C)C(=O)N[C@@H](CO)C(=O)N[C@@H](C)C(=O)N[C@@H](CCCNC(=N)N)C(=O)N[C@@H](CCCCN)C(=O)N[C@@H](CC(C)C)C(=O)N[C@@H](CC(C)C)C(=O)N[C@@H](CCC(N)=O)C(=O)N[C@@H](CC(=O)O)C(=O)N[C@H](C(=O)N[C@@H](CCSC)C(=O)N[C@@H](CO)C(=O)N[C@@H](CCCNC(=N)N)C(=O)N[C@@H](CCC(N)=O)C(=O)N[C@@H](CCC(N)=O)C(=O)NCC(=O)N[C@@H](CCC(=O)O)C(=O)N[C@@H](CO)C(=O)N[C@@H](CC(N)=O)C(=O)N[C@@H](CCC(N)=O)C(=O)N[C@@H](CCC(=O)O)C(=O)N[C@@H](CCCNC(=N)N)C(=O)NCC(=O)N[C@@H](C)C(=O)N[C@@H](CCCNC(=N)N)C(=O)N[C@@H](C)C(=O)N[C@@H](CCCNC(=N)N)C(=O)N[C@@H](CC(C)C)C(N)=O)[C@@H](C)CC)C(C)C)[C@@H](C)O)[C@@H](C)CC [Tesamorelin]
Detection of intact GHRH in rat plasma 4 h post-administration ([1]; qualitative): identified
Detection of intact GHRH in rat plasma 8 h post-administration ([1]; qualitative): identified
Degradation products (metabolites) detected after incubation in human plasma [2]: no degradation products of considerable abundance were detected

Molecule: DAIFTNSYRKVLGQLSARKLLQDIMSR-NH2 [Sermorelin metabolite, GRF3-29, metabolite of Sermorelin originating from the loss of the N-terminal Tyr-Ala-residue]
Detection of metabolite in human plasma 30 min post injection ([3]; EDTA plasma 30 min): detected
Detection of metabolite in human plasma 90 min post injection ([3]; EDTA plasma 90 min): negative

Molecule: YADAIFTNSYRKVLGQLSARKLLQDIMSR-NH2
cleaved bond [4]: Ala2-D3, 30 min
cleaved bond [5]: Ala2-D3
cleaved bond [6]: Ala2-D3

Molecule: hexenoyl-YADAIFTNSYRKVLGQLSARKLLQDIMSRQQGESNQERGARARL-NH2
not cleaved [7]: identified at all sampling points (i.e., up to 8 h post-administration)
not cleaved [6]: no degradation products of considerable abundance were detected

Now from value to molecule, other results behind:

In vivo biotransformation in rats (in words) [1]: readily biotransformed
Detection of intact GHRH in rat plasma 4 h post-administration ([1]; qualitative): identified
Detection of intact GHRH in rat plasma 8 h post-administration ([1]; qualitative): identified
Molecule: CC[C@H](C)[C@H](NC(=O)[C@H](C)NC(=O)[C@H](CC(=O)O)NC(=O)[C@@H](C)NC(=O)[C@@H](N)Cc1ccc(O)cc1)C(=O)N[C@@H](Cc1ccccc1)C(=O)N[C@H](C(=O)N[C@@H](CC(N)=O)C(=O)N[C@@H](CO)C(=O)N[C@@H](Cc1ccc(O)cc1)C(=O)N[C@@H](CCCNC(=N)N)C(=O)N[C@@H](CCCCN)C(=O)N[C@H](C(=O)N[C@@H](CC(C)C)C(=O)NCC(=O)N[C@@H](CCC(N)=O)C(=O)N[C@@H](CC(C)C)C(=O)N[C@@H](CO)C(=O)N[C@@H](C)C(=O)N[C@@H](CCCNC(=N)N)C(=O)N[C@@H](CCCCN)C(=O)N[C@@H](CC(C)C)C(=O)N[C@@H](CC(C)C)C(=O)N[C@@H](CCC(N)=O)C(=O)N[C@@H](CC(=O)O)C(=O)N[C@H](C(=O)N[C@@H](CCSC)C(=O)N[C@@H](CO)C(=O)N[C@@H](CCCNC(=N)N)C(N)=O)[C@@H](C)CC)C(C)C)[C@@H](C)O [CJC-1293, (D-Ala^2)-GRF amide]
Anticipated metabolic products (N- or C-terminally truncated analogues) in rat plasma ([1]; qualitative): none of the anticipated metabolic products; also recorded: no analogous metabolites

Anticipated metabolic products (N- or C-terminally truncated analogues) in rat plasma ([1]; qualitative): no analogous metabolites
Detection of intact GHRH in rat plasma 4 h post-administration ([1]; qualitative): identified
Detection of intact GHRH in rat plasma 8 h post-administration ([1]; qualitative): identified
Molecule: CC[C@H](C)[C@H](NC(=O)[C@H](C)NC(=O)[C@H](CC(=O)O)NC(=O)[C@@H](C)NC(=O)[C@@H](N)Cc1ccc(O)cc1)C(=O)N[C@@H](Cc1ccccc1)C(=O)N[C@H](C(=O)N[C@@H](CCC(N)=O)C(=O)N[C@@H](CO)C(=O)N[C@@H](Cc1ccc(O)cc1)C(=O)N[C@@H](CCCNC(=N)N)C(=O)N[C@@H](CCCCN)C(=O)N[C@H](C(=O)N[C@@H](CC(C)C)C(=O)N[C@@H](C)C(=O)N[C@@H](CCC(N)=O)C(=O)N[C@@H](CC(C)C)C(=O)N[C@@H](CO)C(=O)N[C@@H](C)C(=O)N[C@@H](CCCNC(=N)N)C(=O)N[C@@H](CCCCN)C(=O)N[C@@H](CC(C)C)C(=O)N[C@@H](CC(C)C)C(=O)N[C@@H](CCC(N)=O)C(=O)N[C@@H](CC(=O)O)C(=O)N[C@H](C(=O)N[C@@H](CC(C)C)C(=O)N[C@@H](CO)C(=O)N[C@@H](CCCNC(=N)N)C(N)=O)[C@@H](C)CC)C(C)C)[C@@H](C)O [CJC-1295, (D-Ala^2, Gln^8, Ala^15, Leu^27)-GRF amide] (H-Y[dA]DAIFTQSYRKVLAQLSARKLLQDILSR-NH2)
